According to the supplement of paper PMC5908809:

Tests used:
SNK-6 (IL-2 2.5 ng/mL) [1] = assay: percent inhibition of viability; higher = more inhibition; details: 72 h
KHYG-1 (IL-2 2.5 ng/mL) [2] = assay: as above; details: 72 h
[3] = system: normal primary NK cells, pool 3 (3 donors) (IL-2 2.5 ng/mL); assay: as above; details: 72 h
IMC-1 (IL-2 20 ng/mL) [4] = assay: as above; details: 72 h
NK-92 (IL-2 2.5 ng/mL) [5] = assay: as above; details: 72 h
[6] = system: normal primary NK cells, pool 1 (3 donors) (IL-2 2.5 ng/mL); assay: as above; details: 72 h
NKL (IL-2 2.5 ng/mL) [7] = assay: as above; details: 72 h
[8] = system: normal primary NK cells, pool 1 (3 donors), resting (IL-2 0 ng/mL); assay: as above; details: 72 h
KAI3 (IL-2 2.5 ng/mL) [9] = assay: as above; details: 72 h
NK-YS (IL-2 2.5 ng/mL) [10] = assay: as above; details: 72 h
DERL-7 (IL-2 2.5 ng/mL) [11] = assay: as above; details: 72 h
[12] = system: normal primary NK cells, pool 2 (3 donors) (IL-2 2.5 ng/mL); assay: as above; details: 72 h
YT (IL-2 2.5 ng/mL) [13] = assay: as above; details: 72 h
[14] = system: normal NK cells expanded with K562-aAPC; assay: as above; details: 72 h, IL-2 2.5 ng/mL
Description: (§1)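 Drug sensitivity and resistance testing on K562-aAPC-expanded normal NK cells: 5 concentrations (10-fold steps over a 10,000-fold range), 72 h at 37 °C, viability by CellTiter-Glo normalised to DMSO and benzethonium chloride controls; DSS from the fitted curve.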

[15] = system: normal NK cells expanded with K562-aAPC; assay: drug sensitivity score (DSS) (DSS units); higher = more sensitive; extreme values may be limits of the assay; details: 72 h; IL-2 2.5 ng/mL
Description: as §1

SNK-6 (IL-2 2.5 ng/mL) [16] = assay: as above; details: 72 h
KHYG-1 (IL-2 2.5 ng/mL) [17] = assay: as above; details: 72 h
[18] = system: normal primary NK cells, pool 3 (3 donors) (IL-2 2.5 ng/mL); assay: as above; details: 72 h
IMC-1 (IL-2 20 ng/mL) [19] = assay: as above; details: 72 h
NK-92 (IL-2 2.5 ng/mL) [20] = assay: as above; details: 72 h
[21] = system: normal primary NK cells, pool 1 (3 donors) (IL-2 2.5 ng/mL); assay: as above; details: 72 h
NKL (IL-2 2.5 ng/mL) [22] = assay: as above; details: 72 h
[23] = system: normal primary NK cells, pool 1 (3 donors), resting (IL-2 0 ng/mL); assay: as above; details: 72 h
KAI3 (IL-2 2.5 ng/mL) [24] = assay: as above; details: 72 h
NK-YS (IL-2 2.5 ng/mL) [25] = assay: as above; details: 72 h
DERL-7 (IL-2 2.5 ng/mL) [26] = assay: as above; details: 72 h
[27] = system: normal primary NK cells, pool 2 (3 donors) (IL-2 2.5 ng/mL); assay: as above; details: 72 h
YT (IL-2 2.5 ng/mL) [28] = assay: as above; details: 72 h

CN1CCC(CNc2ccc3ncc(-c4cccc(OC(F)(F)F)c4)n3n2)CC1 [SGI-1776] (max concentration tested 10000 nM)
percent inhibition of viability [%]
Details	1 nM	10 nM	100 nM	1000 nM	10000 nM
DERL-7 (IL-2 2.5 ng/mL) [11]	4.46	1.8	11.3	43.9	101
IMC-1 (IL-2 20 ng/mL) [4]	-2.53	-0.64	0.12	-0.28	101
KAI3 (IL-2 2.5 ng/mL) [9]	-4.36	-2.13	-0.56	14.2	104
KHYG-1 (IL-2 2.5 ng/mL) [2]	2.2	0.67	5.12	10.8	104
NK-92 (IL-2 2.5 ng/mL) [5]	0.53	2.3	2.24	6.57	105
NK-YS (IL-2 2.5 ng/mL) [10]	2.39	2.07	3.08	7.09	105
NKL (IL-2 2.5 ng/mL) [7]	-15.4	-12.2	-2.55	18.8	103
SNK-6 (IL-2 2.5 ng/mL) [1]	11.8	-1.96	7.5	-1.42	101
YT (IL-2 2.5 ng/mL) [13]	2.03	-1.52	2.24	5.9	105
[3]	-9.4	-9.39	-5.33	7.82	100
[6]	-1.59	-15.9	0.28	11.6	101
[8]	4.88	-2.56	18.3	29.4	99.8
[12]	-5.28	-4.01	7.14	23.6	102
[14]	0.39	2.03	3.74	25.6	101

Details	drug sensitivity score
DERL-7 (IL-2 2.5 ng/mL) [26]	10.6
IMC-1 (IL-2 20 ng/mL) [19]	5.65
KAI3 (IL-2 2.5 ng/mL) [24]	7.99
KHYG-1 (IL-2 2.5 ng/mL) [17]	7.47
NK-92 (IL-2 2.5 ng/mL) [20]	6.86
NK-YS (IL-2 2.5 ng/mL) [25]	6.92
NKL (IL-2 2.5 ng/mL) [22]	8.62
SNK-6 (IL-2 2.5 ng/mL) [16]	5.51
YT (IL-2 2.5 ng/mL) [28]	6.74
[15]	9.44
[18]	6.78
[21]	7.48
[23]	9.01
[27]	9.22

CC(C)(C)c1cnc(CSc2cnc(NC(=O)C3CCNCC3)s2)o1 [SNS-032] (max concentration tested 10000 nM)
percent inhibition of viability [%]
Details	1 nM	10 nM	100 nM	1000 nM	10000 nM
DERL-7 (IL-2 2.5 ng/mL) [11]	0.08	-3.51	77.5	100	100
IMC-1 (IL-2 20 ng/mL) [4]	-4.98	-6.51	97.6	99.1	98.8
KAI3 (IL-2 2.5 ng/mL) [9]	-8.15	9.55	57.9	103	98.3
KHYG-1 (IL-2 2.5 ng/mL) [2]	-2.99	-6.55	4.29	102	102
NK-92 (IL-2 2.5 ng/mL) [5]	-11.5	-4.07	11.5	98.8	101
NK-YS (IL-2 2.5 ng/mL) [10]	-1.14	9.07	83.6	100	99.8
NKL (IL-2 2.5 ng/mL) [7]	-10.4	11.6	97.8	106	103
SNK-6 (IL-2 2.5 ng/mL) [1]	17.9	2.01	31.7	54	38
YT (IL-2 2.5 ng/mL) [13]	-0.35	4.14	57.7	103	101
[3]	-17.4	-11.5	48.5	98.1	99
[6]	-14.2	-9.83	88.9	98.2	98.8
[8]	-12.8	-19.9	79.9	91.5	93.9
[12]	-21	-13.7	80.7	94.5	96.5
[14]	2.77	0	29.2	100	100

Details	drug sensitivity score
DERL-7 (IL-2 2.5 ng/mL) [26]	26.9
IMC-1 (IL-2 20 ng/mL) [19]	29.5
KAI3 (IL-2 2.5 ng/mL) [24]	25.1
KHYG-1 (IL-2 2.5 ng/mL) [17]	18.7
NK-92 (IL-2 2.5 ng/mL) [20]	19.8
NK-YS (IL-2 2.5 ng/mL) [25]	29
NKL (IL-2 2.5 ng/mL) [22]	32.3
SNK-6 (IL-2 2.5 ng/mL) [16]	13.4
YT (IL-2 2.5 ng/mL) [28]	24.9
[15]	22.3
[18]	23.9
[21]	28.1
[23]	26.1
[27]	26.6
